Results reported in paper PMC5840262, “Design, Synthesis and Evaluation of Branched RRWQWR-Based Peptides as Antibacterial Agents Against Clinically Relevant Gram-Positive and Gram-Negative Pathogens” (Frontiers in Microbiology, 2018).
Ends that are not written are not given here.

Tested on: ATCC reference strains
Assay: Antibacterial activity against the ATCC reference strains, overall
Assay type: cell-based
Conditions: against the ATCC reference strains of E. faecalis and P. aeruginosa, all strains together
Procedure: We screened all five peptides against the ATCC reference strains and the clinical isolates according to Method M7-A7 of the National Committee for Clinical Laboratory Standards (CLSI, [2007]). The MIC50 and MBC values were determined using a broth microdilution and growth inhibition method previously reported by Leon-Calvijo et al. ([2015]), with some modifications (Wiegand et al., [2008]). Briefly, the MIC50 experiments comprised a liquid-inhibition growth assay in a sterile, untreated, 96-well flat-bottom tissue culture plate. […] The turbidity of the cultures was measured and adjusted spectrophotometrically to a McFarland standard of 0.5, and then diluted to a final concentration of 5 × 10^7 colony forming units (CFU) per well. […] Each concentration was evaluated in duplicate and each assay was performed in triplicate.
Wells containing Mueller Hilton broth with bacterial inoculum only served as bacterial-growth controls. […] The microplate was incubated for 24 h at 37°C, and growth inhibition was measured by monitoring the optical density at 620 nm (OD620). […]
To determine the MBC, an aliquot from each well of the MIC50 assay was spread onto Mueller Hilton agar. After 18 h at 37°C, the concentration that inhibited bacterial growth was determined. […]

RRWQWR-NH2 [LfcinB (20–25), reference compound]
MIC50: > 200 µM
